Experimental data reported in patent US7541020B2, “Aminoalkyl glucosaminide phosphate compounds and their use as adjuvants and immunoeffectors” (priority 1997, dated 2009).
“And” between values parts separate entries of the source, which are not always exact repeats. Equal values may be shown once. Read-outs that look alike come from different tables or passages of the source.

Tests used:
[1] = test system: ovalbumin; test: Stimulation of antiovalbumin antibody production; assay type: in vivo, BDF1 female mice; details: 50 μg AGP + 50 μg ovalbumin; second immunization day 21; bled 14 days after second injection
Experimental: BDF1 female mice (8 per group) were immunized with 0.2 ml of emulsions containing 50 μg of the AGPs +50 μg of ovalbumin. A second immunization was administered 21 days post primary. Each mouse was bled 14 days after the second injection.

[2] = test system: influenza A/HK/68; assay type: in vivo, BALB/c mice; details: mouse, in vivo
[3] = test system: hepatitis B surface antigen (HBsAg); test: Serum anti-HBsAg antibody titers after intranasal HBsAg + AGP-AF (ELISA); assay type: in vivo, BALB/c mice; details: for Anti HBsAg Titer^−1 IgG1 / Anti HBsAg Titer^−1 IgG2a: K = 10^3
[4] = test system: hepatitis B surface antigen (HBsAg); test: Vaginal wash anti-HBsAg antibody after intranasal HBsAg + AGP-AF; assay type: in vivo, BALB/c mice; details: 10 days after the booster immunization; intranasal HBsAg + 10 μg AGP-AF
Source text: Vaginal samples were collected 10 days after the booster immunization and assayed for anti-HBsAg antibody.

[5] = test system: influenza A/HK/68; set-up: species or system ICR mice; details: mouse, in vivo
[6] = test system: hepatitis B surface antigen (HBsAg); test: Cytotoxic T-lymphocyte response to HBsAg with AGP in stable emulsion (AGP-SE); details: s.c. 2.0 μg HBsAg + 25 μg AGP/SE
[7] = Fever response in rabbits (pyrogenicity); assay type: in vivo; details: 10 ug/kg; cumulative rise ≥1.5 degree in three rabbits is considered pyrogenic
Experimental: The AGP compounds were also evaluated for their tendency to induce a fever response in rabbits. Each compound was formulated in 10% (v/v) ethanol/water solution at 100 mg/ml, then diluted with D5W to the desired concentration. The material was injected at 3 ml/kg body weight into 3 rabbits. The rise in core temperature of the rabbits was recorded.

[8] = test system: tetanus toxoid; details: mouse, in vivo, sc
[9] = test system: E.G7 (OVA) cells; details: s.c. 25 μg OVA in AGP preparation, spleen cells 21 days later
[10] = test system: tetanus toxoid; details: mouse, in vivo
[11] = test system: hepatitis B surface antigen (HBsAg); details: for % Cytotoxicity (d16, post 2°): HBsAg + 10 μg AGP-AF intranasally; for % Cytotoxicity (d8, post 3°): intranasal HBsAg + 10 μg AGP-AF
[12] = test system: hepatitis B surface antigen (HBsAg); test: Anti-HBsAg antibody titer with AGP-SE (ELISA plates coated with HBsAg or p72 peptide); details: sera day 28 post 2°, 25 μg AGP-SE
[13] = day 22 post 2°, HBsAg + 10 μg AGP-AF intranasally
[14] = serum, day 21 post 3°, intranasal HBsAg + 10 μg AGP-AF
[15] = ELISA plates coated with p72 peptide

For “N-[(R)-3-Decanoyloxytetradecanoyl]-O-[2-deoxy-4-O-phosphono-2-[(R)-3-decanoyloxytetradecanoylamino]-3-O-[(R)-3-decanoyloxytetradecanoyl]-β-D-glucopyranosyl]-L-serinamide Triethylammonium Salt [B25]”, the “Anti-ovalbumin IgG1 T/C” value [1] was 5.2, the “Anti-ovalbumin IgG1 Titer” value [1] was 8500 and the “Anti-ovalbumin IgG2a T/C” value [1] was 0.5. The “Anti-ovalbumin IgG2a Titer” value [1] was 163, the “Anti-ovalbumin IgG2b T/C” value [1] was 5.0 and the “Anti-ovalbumin IgG2b Titer” value [1] was 1188. For the same substance, the “Anti-ovalbumin IgM T/C” value [1] was 0.8, the “Anti-ovalbumin IgM Titer” value [1] was 150 and the “Anti-ovalbumin Total Ig T/C” value [1] was 1.9. For the same substance, the “Anti-ovalbumin Total Ig Titer” value [1] was 438, the “Anti-influenza Titer^−1 IgG1” value [2] was 1600 and the “Anti-influenza Titer^−1 IgG2a” value [2] was 6400. For the same substance, the “Anti-influenza Titer^−1 IgG2b” value [2] was 1600, the “Anti-influenza Titer^−1 Total IgG” value [2] was 3200 and the “Percent Survival” value [2] was 100%. The “Anti HBsAg Titer^−1 IgA” value [3, 13] was 3,200, the “Anti HBsAg Titer^−1 IgG1” value [3, 13] was 256K# and the “Anti HBsAg Titer^−1 IgG2a” value [3, 13] was 500K. For the same substance, the “Anti HBsAg Titer^−1 IgG1” value [3, 14] was 1000K#, the “Anti HBsAg Titer^−1 IgG2a” value [3, 14] was 1000K and the “Anti HBsAg Titer^−1 IgA” value [3, 14] was 25,600. For the same substance, the “Vaginal Wash Anti-HBsAg Titer^−1 IgA” value [4] was 800, the “Vaginal Wash Anti-HBsAg Titer^−1 IgG” value [4] was 100 and the “Percent Protection” value [5] was 100%. For the same substance, the “Serum Titers IgG1” value [5] was 102,400, the “Serum Titers IgG2a” value [5] was 819,200 and the “Serum Titers IgG2b” value [5] was “≧819,200”. The “Serum Titers Total IgG” value [5] was “≧819,200”, the “Vaginal Wash Samples IgA Secondary” value [5] was 1280 and the “Vaginal Wash Samples IgA Tertiary” value [5] was 1280. For the same substance, the “Vaginal Wash Samples IgG Secondary” value [5] was 640, the “Vaginal Wash Samples IgG Tertiary” value [5] was 2560 and the “% Cytotoxicity” value ([6]; d16, post 2°, E:T 6.25:1) was 13%. The “% Cytotoxicity” value ([6]; d16, post 2°, E:T 12.5:1) was 20%, the “% Cytotoxicity” value ([6]; d16, post 2°, E:T 25:1) was 28% and the “% Cytotoxicity” value ([6]; d16, post 2°, E:T 50:1) was 49%. For the same substance, the “% Cytotoxicity” value ([6]; d17, post 1°, E:T 6.25:1) was 5%, the “% Cytotoxicity” value ([6]; d17, post 1°, E:T 12.5:1) was 9% and the “% Cytotoxicity” value ([6]; d17, post 1°, E:T 25:1) was 12%. For the same substance, the “% Cytotoxicity” value ([6]; d17, post 1°, E:T 50:1) was 27%, the “PYROGENICITY Total Rise ° C., 3 rabbits” value [7] was 4.2 °C and the “Anti-tetanus toxoid IgG1 T/C” value [8] was 2.68. For the same substance, the “Anti-tetanus toxoid IgG1 Titer” value [8] was 576,000, the “Anti-tetanus toxoid IgG2a T/C” value [8] was 1.67 and the “Anti-tetanus toxoid IgG2a Titer” value [8] was 8,500. The “Anti-tetanus toxoid IgG2b T/C” value [8] was 3.28, the “Anti-tetanus toxoid IgG2b Titer” value [8] was 94,400 and the “Anti-tetanus toxoid IgM T/C” value [8] was 2.0. The “Anti-tetanus toxoid IgM Titer” value [8] was 3,200, the “Anti-tetanus toxoid Total IgG T/C” value [8] was 8.93 and the “Anti-tetanus toxoid Total IgG Titer” value [8] was 57,600. For the same substance, the “% Cytotoxicity” value ([9]; E:T 12.5:1) was 43%, the “% Cytotoxicity” value ([9]; E:T 25:1) was 55% and the “% Cytotoxicity” value ([9]; E:T 50:1) was 65%. For the same substance, the “Anti-Tetanus Toxoid Titer^−1 Fecal Extract IgA” value [10] was 3200 and 6400, the “Anti-Tetanus Toxoid Titer^−1 Vaginal Wash IgA” value [10] was 6400 and the “% Cytotoxicity (d16, post 2°)” value ([11]; E/T 6.25:1) was 9%. For the same substance, the “% Cytotoxicity (d8, post 3°)” value ([11]; E/T 6.25:1) was 8%, the “% Cytotoxicity (d16, post 2°)” value ([11]; E/T 12.5:1) was 13% and the “% Cytotoxicity (d8, post 3°)” value ([11]; E/T 12.5:1) was 13%. The “% Cytotoxicity (d16, post 2°)” value ([11]; E/T 25:1) was 20%, the “% Cytotoxicity (d8, post 3°)” value ([11]; E/T 25:1) was 19% and the “% Cytotoxicity (d16, post 2°)” value ([11]; E/T 50:1) was 36%. For the same substance, the “% Cytotoxicity (d8, post 3°)” value ([11]; E/T 50:1) was 30%, the “Anti-HBsAg Titer^−1 HBsAg IgG1” value ([12]; ELISA plates coated with HBsAg) was 2048K* and the “Anti-HBsAg Titer^−1 HBsAg IgG2a” value ([12]; ELISA plates coated with HBsAg) was 2048K. For the same substance, the “Anti-HBsAg Titer^−1 p72-Peptide IgG1” value [12, 15] was 128K and the “Anti-HBsAg Titer^−1 p72-Peptide IgG2a” value [12, 15] was 64K.
